The test deals with human astrocyte-converted neurons. Nature of the test: Patch clamp whole-cell recordings of human astrocyte-converted neurons. In general terms: The patch-clamp technique gives a direct electrical read-out from membranes.

DNQX: the “effect on spontaneous burst activities” value is “abolished”.
